In one data set the target is 5-HT2A (Homo sapiens, UniProt P28223). The data set is classed as binding.
For the next data set, the target named is D2 (Homo sapiens, UniProt P14416). In kind it is binding.
Another data set has as its target D1 (Homo sapiens, UniProt P21728). The data set is classed as binding.
A further data set concerns the target SERT (Homo sapiens, UniProt P31645). The data set is classed as binding.
For another data set, the system named is C57Bl/6 mice. Put plainly: Lack of precipitated withdrawal from oxycodone. The note with it: for total withdrawal signs: oxycodone mice.
Another data set concerns C57BL/6J mice. The settings on record: mouse, in vivo.

D1, sequence (P21728 whole entry): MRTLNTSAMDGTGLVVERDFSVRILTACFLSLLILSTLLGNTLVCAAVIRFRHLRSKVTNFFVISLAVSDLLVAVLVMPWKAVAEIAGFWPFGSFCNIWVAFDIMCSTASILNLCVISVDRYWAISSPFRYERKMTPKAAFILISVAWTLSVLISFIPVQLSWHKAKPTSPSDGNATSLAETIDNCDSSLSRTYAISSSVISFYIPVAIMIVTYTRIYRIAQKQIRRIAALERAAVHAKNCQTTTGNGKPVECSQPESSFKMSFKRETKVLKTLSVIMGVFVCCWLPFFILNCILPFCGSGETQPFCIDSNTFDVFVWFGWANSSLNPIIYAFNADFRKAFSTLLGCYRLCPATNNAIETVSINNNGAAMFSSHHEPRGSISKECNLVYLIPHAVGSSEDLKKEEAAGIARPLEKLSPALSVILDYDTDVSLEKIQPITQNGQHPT
D2, sequence (P14416 1-414 isoform P14416-2): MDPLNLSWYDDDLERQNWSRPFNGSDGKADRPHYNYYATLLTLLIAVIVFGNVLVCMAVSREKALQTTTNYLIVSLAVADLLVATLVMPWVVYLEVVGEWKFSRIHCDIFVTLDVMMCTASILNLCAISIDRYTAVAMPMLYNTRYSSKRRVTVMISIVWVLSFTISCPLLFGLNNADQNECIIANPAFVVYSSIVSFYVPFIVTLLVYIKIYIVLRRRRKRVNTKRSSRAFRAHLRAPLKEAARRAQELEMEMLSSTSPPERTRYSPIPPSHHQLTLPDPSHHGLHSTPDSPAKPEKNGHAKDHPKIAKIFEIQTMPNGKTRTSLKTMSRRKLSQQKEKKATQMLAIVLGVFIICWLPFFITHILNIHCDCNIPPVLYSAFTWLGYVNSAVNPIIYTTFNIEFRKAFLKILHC
5-HT2A, sequence (P28223 whole entry): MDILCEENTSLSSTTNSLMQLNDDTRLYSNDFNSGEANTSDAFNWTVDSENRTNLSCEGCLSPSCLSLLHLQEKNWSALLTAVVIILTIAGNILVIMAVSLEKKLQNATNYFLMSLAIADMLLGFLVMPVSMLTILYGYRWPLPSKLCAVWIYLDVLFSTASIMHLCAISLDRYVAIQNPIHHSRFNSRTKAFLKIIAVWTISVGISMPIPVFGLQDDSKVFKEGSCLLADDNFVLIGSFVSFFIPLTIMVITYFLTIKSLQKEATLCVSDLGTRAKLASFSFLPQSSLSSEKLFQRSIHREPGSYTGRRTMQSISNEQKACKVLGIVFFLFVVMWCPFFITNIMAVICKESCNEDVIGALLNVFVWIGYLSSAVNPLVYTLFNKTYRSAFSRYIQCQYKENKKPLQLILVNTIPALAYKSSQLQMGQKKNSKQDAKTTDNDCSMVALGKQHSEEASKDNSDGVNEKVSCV
SERT, sequence (P31645 whole entry, species assumed): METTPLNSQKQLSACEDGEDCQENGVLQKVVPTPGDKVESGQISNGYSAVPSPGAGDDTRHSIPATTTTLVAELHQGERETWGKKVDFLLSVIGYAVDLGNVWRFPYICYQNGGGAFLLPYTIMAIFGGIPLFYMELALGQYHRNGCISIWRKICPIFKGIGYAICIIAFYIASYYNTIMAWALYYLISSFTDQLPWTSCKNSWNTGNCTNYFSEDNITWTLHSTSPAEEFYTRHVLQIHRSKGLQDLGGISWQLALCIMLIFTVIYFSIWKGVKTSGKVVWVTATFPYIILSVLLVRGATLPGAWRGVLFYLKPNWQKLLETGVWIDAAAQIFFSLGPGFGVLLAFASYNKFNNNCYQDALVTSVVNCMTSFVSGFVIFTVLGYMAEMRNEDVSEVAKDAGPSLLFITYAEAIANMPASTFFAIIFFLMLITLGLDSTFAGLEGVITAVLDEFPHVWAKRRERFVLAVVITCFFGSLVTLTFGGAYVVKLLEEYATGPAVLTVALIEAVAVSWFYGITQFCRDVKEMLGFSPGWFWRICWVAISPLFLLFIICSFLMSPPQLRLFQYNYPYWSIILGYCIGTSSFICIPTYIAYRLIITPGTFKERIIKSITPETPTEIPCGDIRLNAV

What is called Ki is a measure of affinity in units of concentration, obtained from inhibition or displacement. A high value points to a looser hold on the target. In the case of `O=C1CN2c3c(cccc3[C@@H]3CN(CCCc4n[nH]c5cc(F)ccc45)CC[C@@H]32)N1` [Example 2, (6bR,10aS)-8-(3-(6-fluoro-1H-indazol-3-yl)propyl)-6b,7,8,9,10,10a-hexahydro-1H-pyrido[3′,4′:4,5]pyrrolo[1,2,3-de]quinoxalin-2(3H)-one], the Ki at 5-HT2A came to 2.6 nM; on D2, 15 nM; on D1, 5.2 nM; at SERT it was 540 nM.

As to `O=C1CN2c3c(cccc3[C@@H]3CN(CCCOc4ccc(F)cc4)CC[C@@H]32)N1` [Example 1, (6bR,10aS)-8-(3-(4-fluorophenoxy)propyl)-6b,7,8,9,10,10a-hexahydro-1H-pyrido[3′,4′:4,5]pyrrolo[1,2,3-de]quinoxalin-2(3H)-one], in the data set with C57Bl/6 mice (chronic saline, 17.8 mg/kg s.c., relative to vehicle (p>0.05)), the “somatic signs or loss of body weight” value is recorded as “does not produce any significant effects”. In the data set with C57Bl/6 mice (mice chronically administered oxycodone, doses <10 mg/kg s.c., vs vehicle), the “number of paw tremors or jumps” value was “do not differ from mice administered vehicle”. Besides, the body weight loss result with C57Bl/6 mice (mice receiving oxycodone chronically, <10 mg/kg) is given as “does not induce further body weight loss”. The total withdrawal signs entry was “significantly more total withdrawal signs” in the data set on C57Bl/6 mice (at 10 mg/kg, p<0.05, mainly wet dog shakes) and “induced greater total withdrawal signs” in the data set with C57Bl/6 mice (escalating doses (3, 10, 17.8 mg/kg s.c.), p<0.0001).

Consider `C=CCN1CC[C@]23c4c5ccc(O)c4O[C@H]2C(=O)CC[C@@]3(O)[C@H]1C5` [Naloxone], for which, in the data set with C57BL/6J mice, the Jumps amounted to 0, the “Paw Tremors” value was determined as 0.87, the “Total Number of Signs” value amounted to 2.2 and the “body weight loss” value was 0.5%.

As for `O=C1CN2c3c(cccc3[C@@H]3CN(CCCc4noc5cc(F)ccc45)CC[C@@H]32)N1` [Example 3, (6bR,10aS)-8-(3-(6-fluorobenzo[d]isoxazol-3-yl)propyl)-6b,7,8,9,10,10a-hexahydro-1H-pyrido[3′,4′:4,5]pyrrolo[1,2,3-de]quinoxalin-2(3H)-one], the figures for the Ki at 5-HT2A, on D2 and at D1 were 3.1 nM, 84 nM and 13 nM, respectively.

The values above are taken from patent publication US20240415832A1 (priority 2021, published 2024).
